Patent US11999723B2, “Pyrazole-containing macrophage migration inhibitory factor inhibitors” (priority 2018, dated 2024)
Read-outs that look alike come from different tables or passages of the source.

Biological target: MIF (Homo sapiens (Human), UniProt P14174)
Experiment: HPP tautomerase assay (inhibition of the tautomerase activity of MIF)
Format: biochemical
Details: for lowering of the Ki relative to 8n: HPP tautomerase assay
Experimental: Inhibition of the tautomerase activity of MIF was measured using the substrate 4-hydroxyphenyl pyruvic acid (HPP) in a procedure largely adapted from previous reports. A solution of HPP (10 mM) in acetate buffer (0.5 M ammonium acetate, pH adjusted to 6.0) was prepared and allowed to incubate overnight in the dark at room temperature to allow for equilibration of the keto and enol forms. Following the incubation period, the HPP solution was stored at 4° C. and used for no more than a week. […] A negative control (containing water and DMSO in lieu of protein and inhibitor, respectively) and a positive control (containing DMSO in lieu of inhibitor) were also prepared. The reaction began upon the addition of HPP solution (final concentration: 1.0 mM and 2.5 mM). […] Absorbance was measured three times for each [inhibitor]-[HPP] combination. […] Reported Ki values represent the average value obtained from two assays performed on different days. (R)-ISO-1 (purchased from Santa Cruz Biotechnology) was used as a control.
Recombinant human MIF was expressed and purified according to published protocols. Briefly, for the purification of MIF, E. coli cell pellets were suspended in lysis buffer (20 mM Tris, pH 7.5; 20 mM sodium chloride; 10% glycerol; 2 mM magnesium chloride; 1 cOmplete mini protease inhibitor cocktail tablet per 250 mL of buffer). The solution was sonicated and centrifuged at 27,000G for 30 mins. The supernatant was filtered through a 0.22 μm syringe filter and loaded on a GE Healthcare Hi-Trap SP HP column in sequence with a GE Healthcare Hi-Trap Q SP column equilibrated with a buffer composed of 20 mM NaCl and 20 mM Tris, pH 7.5. […] To achieve highest purity, the flow-through was further purified with a GE Healthcare Superdex 200 column. The purified protein was concentrated with a 10 kDa centrifugal filter unit to 30 mg/mL, flash-frozen in liquid nitrogen, and stored at −80° C.
As in prior studies, the inhibition constants Ki were determined using HPP as the substrate. […] In addition, the aqueous solubilities of several compounds were measured with a shake-flask procedure.

[1] = HPP as substrate, MIF tautomerase, read-out: Experimental inhibition constants, Ki
[2] = Table 3, HPP as substrate, unit inferred, read-out: HPP Ki

Sequence of MIF (P14174 2-115): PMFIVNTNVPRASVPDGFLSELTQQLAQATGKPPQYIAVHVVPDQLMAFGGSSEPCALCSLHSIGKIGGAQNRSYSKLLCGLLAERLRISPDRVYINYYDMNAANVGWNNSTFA

SMILES	Ki [1]	Ki [2]	also measured
O=C(O)c1cc(-c2cn[nH]c2)ccc1-c1ccccc1 [Compound 6a, 4-(1H-pyrazol-4-yl)-[1,1′-biphenyl]-2-carboxylic acid]	20.6 µM		
O=C(O)c1cc(-c2cn[nH]c2)ccc1-c1cccc2ccccc12 [Compound 6b, 2-(Naphthalen-1-yl)-5-(1H-pyrazol-4-yl)benzoic acid]	19.5 µM		
O=C(O)c1cc(-c2cn[nH]c2)ccc1-c1ccc2ccccc2c1 [Compound 6c, 2-(Naphthalen-2-yl)-5-(1H-pyrazol-4-yl)benzoic acid]	5.4 µM		Ki: 5 µM
O=C(O)c1cc(-c2cn[nH]c2)ccc1Nc1ccccc1 [Compound 7a, 2-(Phenylamino)-5-(1H-pyrazol-4-yl)benzoic acid]	12.7 µM		
CN(c1ccc2ccccc2c1)c1ccc(-c2cn[nH]c2)cc1C(=O)O [Compound 7b, 2-(Methyl(naphthalen-2-yl)amino)-5-(1H-pyrazol-4-yl)benzoic acid]	4.2 µM		
O=C(O)c1cc(-c2cn[nH]c2)ccc1Oc1ccccc1 [Compound 8a, 2-Phenoxy-5-(1H-pyrazol-4-yl)benzoic acid]	6.8 µM		
Cc1ccccc1Oc1ccc(-c2cn[nH]c2)cc1C(=O)O [Compound 8b, 5-(1H-Pyrazol-4-yl)-2-(o-tolyloxy)benzoic acid]	4.3 µM		
Cc1cccc(Oc2ccc(-c3cn[nH]c3)cc2C(=O)O)c1 [Compound 8c, 5-(1H-Pyrazol-4-yl)-2-(m-tolyloxy)benzoic acid]	3.8 µM		
Cc1ccc(Oc2ccc(-c3cn[nH]c3)cc2C(=O)O)cc1 [Compound 8d, 5-(1H-Pyrazol-4-yl)-2-(p-tolyloxy)benzoic acid]	7 µM		
O=C(O)c1cc(-c2cn[nH]c2)ccc1Oc1cccc(F)c1 [Compound 8e, 2-(3-Fluorophenoxy)-5-(1H-pyrazol-4-yl)benzoic acid]	1.7 µM		
O=C(O)c1cc(-c2cn[nH]c2)ccc1Oc1ccc(F)cc1 [Compound 8f, 2-(4-Fluorophenoxy)-5-(1H-pyrazol-4-yl)benzoic acid]	4.6 µM		
CS(=O)(=O)c1cc(-c2cn[nH]c2)ccc1Oc1ccc2ccccc2c1 [Compound 8h, 4-(3-(Methylsulfonyl)-4-(naphthalen-2-yloxy)phenyl)-1H-pyrazole]	6.4 µM		
O=C(O)c1cc(-c2cn[nH]c2)ccc1Oc1cc2ccccc2c2ccccc12 [Compound 8j, 2-(Phenanthren-9-yloxy)-5-(1H-pyrazol-4-yl)benzoic acid]	2.3 µM		
O=C(O)c1cc(-c2cn[nH]c2)ccc1OC1C2CC3CC(C2)CC1C3 (stereo not shown) [Compound 8k, 2-((Adamantan-2-yl)oxy)-5-(1H-pyrazol-4-yl)benzoic acid]	2.6 µM		
O=C(O)c1cc(-c2cn[nH]c2)ccc1Oc1cc2c3c(cccc3c1)CC2 [Compound 8l, 2-((1,2-Dihydroacenaphthylen-4-yl)oxy)-5-(1H-pyrazol-4-yl)benzoic acid]	1.1 µM		
O=C(O)c1cc(-c2c[nH]nc2F)ccc1Oc1cccc2ccccc12 [Compound 8m, 5-(3-Fluoro-1H-pyrazol-4-yl)-2-(naphthalen-1-yloxy)benzoic acid]	0.48 µM		
CCc1cc(Oc2ccc(-c3c[nH]nc3F)cc2C(=O)O)cc2ccccc12 [Compound 8o, 2-((4-Ethylnaphthalen-2-yl)oxy)-5-(3-fluoro-1H-pyrazol-4-yl)benzoic acid]	0.15 µM		lowering of the Ki relative to 8n: 3 fold
CCc1cccc2cc(Oc3ccc(-c4c[nH]nc4F)cc3C(=O)O)ccc12 [Compound 8p, 2-((5-Ethylnaphthalen-2-yl)oxy)-5-(3-fluoro-1H-pyrazol-4-yl)benzoic acid]	0.17 µM		lowering of the Ki relative to 8n: 3 fold
CCc1ccc2ccc(Oc3ccc(-c4c[nH]nc4F)cc3C(=O)O)cc2c1 [Compound 8q, 2-((7-Ethylnaphthalen-2-yl)oxy)-5-(3-fluoro-1H-pyrazol-4-yl)benzoic acid]	0.14 µM		lowering of the Ki relative to 8n: 3 fold
O=C(O)c1cc(-c2c[nH]nc2F)ccc1Oc1cc(C2CC2)c2ccccc2c1 [Compound 8r, 2-((4-Cyclopropylnaphthalen-2-yl)oxy)-5-(3-fluoro-1H-pyrazol-4-yl)benzoic acid]	0.11 µM		
CCc1ccc2c(C3CC3)cc(Oc3ccc(-c4c[nH]nc4F)cc3C(=O)O)cc2c1 [Compound 8s, 2-((4-Cyclopropyl-7-ethylnaphthalen-2-yl)oxy)-5-(3-fluoro-1H-pyrazol-4-yl)benzoic acid]	0.066 µM		

SMILES	Ki [1]	Ki [2]	also measured
O=C(O)c1cc(-c2c[nH]nc2F)ccc1Oc1ccc(-c2ccccc2)cc1 [Compound 8t, 2-([1,1′-Biphenyl]-4-yloxy)-5-(3-fluoro-1H-pyrazol-4-yl)benzoic acid]	0.35 µM		
O=C(O)c1cc(-c2c[nH]nc2F)ccc1Oc1cccc(-c2ccccc2)c1 [Compound 8u, 2-([1,1′-Biphenyl]-3-yloxy)-5-(3-fluoro-1H-pyrazol-4-yl)benzoic acid]	0.13 µM		
Cc1cc(C)cc(-c2cccc(Oc3ccc(-c4c[nH]nc4F)cc3C(=O)O)c2)c1 [Compound 8v, 2-((3′,5′-Dimethyl-[1,1′-biphenyl]-3-yl)oxy)-5-(3-fluoro-1H-pyrazol-4-yl)benzoic acid]	0.24 µM		
O=C(O)c1cc(-c2c[nH]nc2F)ccc1Oc1cccc(-c2ncccn2)c1 [Compound 9aa, 5-(3-fluoro-1H-pyrazol-4-yl)-2-(3-(pyrimidin-2-yl)phenoxy)benzoic acid]		0.23 µM	
O=C(O)c1cc(-c2c[nH]nc2F)ccc1Oc1cccc(-c2ccc(CCN3CCOCC3)cc2)c1 [Compound 9bb, 5-(3-fluoro-1H-pyrazol-4-yl)-2-((4′-(2-morpholinoethyl)-[1,1′-biphenyl]-3-yl)oxy)benzoic acid]		0.33 µM	
Cc1n[nH]cc1-c1ccc(Oc2ccc3ccccc3c2)c(C(=O)O)c1 [Compound 9cc, 5-(3-methyl-1H-pyrazol-4-yl)-2-(naphthalen-2-yloxy)benzoic acid]		15 µM	
Cc1ccc(-c2cn[nH]c2)cc1C(=O)O [Compound 9e, 2-methyl-5-(1H-pyrazol-4-yl)benzoic acid]		60 µM	
O=C(O)c1cc(-c2cn[nH]c2)ccc1Oc1cccc(Cl)c1 [Compound 9f, 2-(3-chlorophenoxy)-5-(1H-pyrazol-4-yl)benzoic acid]		20 µM	
O=C(O)c1cc(-c2cn[nH]c2)ccc1Oc1ccc(Cl)cc1 [Compound 9g, 2-(4-chlorophenoxy)-5-(1H-pyrazol-4-yl)benzoic acid]		8.4 µM	
COc1ccc(Oc2ccc(-c3cn[nH]c3)cc2C(=O)O)cc1 [Compound 9h, 2-(4-methoxyphenoxy)-5-(1H-pyrazol-4-yl)benzoic acid]		2.3 µM	
COc1cccc(Oc2ccc(-c3cn[nH]c3)cc2C(=O)O)c1 [Compound 9i, 2-(3-methoxyphenoxy)-5-(1H-pyrazol-4-yl)benzoic acid]		2.5 µM	
CC(=O)NCCc1ccc(Oc2ccc(-c3cn[nH]c3)cc2C(=O)O)cc1 [Compound 9l, 2-(4-(2-acetamidoethyl)phenoxy)-5-(1H-pyrazol-4-yl)benzoic acid]		11 µM	
O=C(O)c1cc(-c2cn[nH]c2)ccc1Oc1cccc2ccoc12 [Compound 9m, 2-(benzofuran-7-yloxy)-5-(1H-pyrazol-4-yl)benzoic acid]		3.7 µM	
O=C(O)c1cccc(Oc2ccc(-c3cn[nH]c3)cc2C(=O)O)c1 [Compound 9n, 2-(3-carboxyphenoxy)-5-(1H-pyrazol-4-yl)benzoic acid]		9.4 µM	
O=C(O)c1cc(-c2cn[nH]c2)ccc1Oc1ccc2occc2c1 [Compound 9o, 2-(benzofuran-5-yloxy)-5-(1H-pyrazol-4-yl)benzoic acid]		3.8 µM	
O=C(O)c1cc(-c2cn[nH]c2)ccc1Oc1ccc2ccoc2c1 [Compound 9p, 2-(benzofuran-6-yloxy)-5-(1H-pyrazol-4-yl)benzoic acid]		1.5 µM	
O=C(O)c1cc(-c2cn[nH]c2)ccc1Oc1cc2c3c(cccc3c1)C=C2 [Compound 9q, 2-(acenaphthylen-4-yloxy)-5-(1H-pyrazol-4-yl)benzoic acid]		1.5 µM	
O=C(O)c1cc(-c2cn[nH]c2)ccc1[S+]([O-])c1ccccc1 (stereo not shown) [Compound 9r, 2-(phenylsulfinyl)-5-(1H-pyrazol-4-yl)benzoic acid]		13 µM	
O=C(O)c1cc(-c2c[nH]nc2F)ccc1Oc1ccc2ccoc2c1 [Compound 9s, 2-(benzofuran-6-yloxy)-5-(3-fluoro-1H-pyrazol-4-yl)benzoic acid]		0.57 µM	
O=C(O)c1cc(-c2c[nH]nc2F)ccc1Oc1cccc(F)c1 [Compound 9t, 5-(3-fluoro-1H-pyrazol-4-yl)-2-(3-fluorophenoxy)benzoic acid]		2.1 µM	
Cc1ccc2ccc(Oc3ccc(-c4cn[nH]c4)cc3C(=O)O)cc2c1 [Compound 9u, 2-((7-methylnaphthalen-2-yl)oxy)-5-(1H-pyrazol-4-yl)benzoic acid]		1.9 µM	
